Experimental data from US20230338340A1, “Methods of Treating Cystic Fibrosis” (The Trustees of Dartmouth College, priority 2020, published 2023).

Experiments:
HBE primary cells = test: Airway surface liquid (ASL) volume after forskolin stimulus in HBE primary cells; assay type: cell-based; conditions: 20 μM, basolateral, 4 hr
Method: A functional test for CFTR activity is the determination of airway surface liquid (ASL) height, reflecting ion transport and associated osmotic recruitment of water, following activation of CFTR ion transport via forskolin stimulation. This functional test is directly related to one of the hallmarks of CF: the viscosity of airway mucus due to lack of anion transport.
Example 6 or Example 9 (20 μM each) or DMSO (CTR; 0.02%; […]) was added to the basolateral medium for 4 hr. Subsequently, forskolin (20 μM) and IBMX (1 mM) was added to the apical and basolateral medium. The test compounds were added for 30 min directly to the basolateral medium, and they were added in 10 μL medium to the apical side. The 10 μL volume was subtracted from the ASL volume (N=2-4/group).

Human-Dab2-DH = biological target: T1, Human-Dab2-DH (Homo sapiens, UniProt P98082); test: Dab2 FP competition assay via HTS; assay type: binding
T1 construct: fused on or other part: N-terminal 10xHis tag with a 3C protease site, cleaved off unless otherwise indicated
T1 sequence (P98082 33-178 limits assumed): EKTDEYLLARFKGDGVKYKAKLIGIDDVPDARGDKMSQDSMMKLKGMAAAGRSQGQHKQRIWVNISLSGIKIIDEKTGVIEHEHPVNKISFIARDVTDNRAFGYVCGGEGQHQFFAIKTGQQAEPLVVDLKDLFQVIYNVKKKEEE

COc1cc(O)c(C(=O)O)c(-c2cc(O)c(O)cc2C)c1 [Example 9, 3,4′,5′-trihydroxy-5-methoxy-2′-methyl-[1,1′-biphenyl]-2-carboxylic acid]
ASL volume generated in response to forskolin stimulus (HBE primary cells): increased the ASL volume | IC50 (Human-Dab2-DH): 37 nM
